Assay results as given in patent publication US4622417A, “L-aminodicarboxylic-(O-cycloalkyl)-L-aminocarboxylate alkyl ester sweeteners” (General Foods Corporation, priority 1984, dated 1986).
Peptide text beside a SMILES is read from it. * marks the point of attachment. tBu = CC(C)(C)*

Columns and labels:
[1] = test system: panel of tasters; assay: Sensory evaluation of sweetness: taste panel matches aqueous solutions of the compound to sucrose standard solutions (sucrose equivalency); assay type: in vivo; conditions: for Sucrose Equivalent: aqueous solution
From the text: A taste procedure for determination of sweetness merely involves the determination of sucrose equivalency. Sucrose equivalence for sweeteners are readily determined. The amount of a sweetener that is equivalent to a given weight percent sucrose can be determined by having a panel of tasters taste solutions of a sweetener at known concentrations and match its sweetness to standard solutions of sucrose. The following sensory evaluations were obtained by a panel of experts using known weight percent aqueous solutions of the above compound matched to sucrose standard solutions as previously described.

[2] = as reported in the literature; cited from earlier work
[3] = 0.005% concentration of compound
[4] = 0.01% concentration of compound
[5] = 0.025% concentration of compound
[6] = 0.05% concentration of compound
[7] = 0.04% concentration of compound
[8] = 0.02% concentration of compound
[9] = 0.0025% concentration of compound

| Structure (SMILES) | Sweetness ratio (Compound:Sucrose) [1, 3] | Sucrose Equivalent [1, 3] [%] | Sweetness ratio (Compound:Sucrose) [1, 4] | Sucrose Equivalent [1, 4] [%] | Sweetness ratio (Compound:Sucrose) [1, 5] | Sucrose Equivalent [1, 5] [%] | also measured |
| --- | --- | --- | --- | --- | --- | --- | --- |
| COC(=O)[C@H](COC1(C)CC=CCC1)NC(=O)[C@@H](N)CC(=O)O (stereo partly drawn) [Example 7, L-aspartyl-O-(1-methylcyclohex-3-enyl)-L-serine methyl ester] | 400 | 2 | 250 | 2.5 | 160 | 4 |  |
| COC(=O)[C@H](COC1CCCCC1C)NC(=O)[C@@H](N)CC(=O)O (stereo partly drawn) [2-cis-methylcyclohexyl, α-L-aspartyl-O-(2-methylcyclohexyl)-L-serine methyl ester] | 360 | 1.8 | 320 | 3.2 | 240 | 6 |  |
| CCOC(=O)[C@H](COC1(C)CCCC1)NC(=O)[C@@H](N)CC(=O)O [α-L-Aspartyl-O-(1-methylcyclopentyl)-L-serine ethyl ester] |  |  |  |  |  |  | sweetness equivalent ([1]; in vivo): 150 x sucrose |
| COC(=O)[C@H](COC1(C)CCC1)NC(=O)[C@@H](N)CC(=O)O [Example 3, L-aspartyl-O-(1-methylcyclobutyl)-L-serine methyl ester] |  |  | 200 | 2 |  |  | Sweetness ratio (Compound:Sucrose) [1, 6]: 160; Sucrose Equivalent [1, 6]: 8% |
| COC(=O)[C@H](COC(C)(C)C1CCC(C)CC1)NC(=O)[C@@H](N)CC(=O)O (stereo partly drawn) [Example 8D, α-L-aspartyl-O-[1,1-dimethyl-1-(4-methylcyclohexyl)methyl]-L-serine methyl ester] |  |  |  |  | 240 | 6 | Sucrose Equivalent (Sensory Evaluations, Example 8) ([1]; 0.01% concentration): 2.2; Sucrose Equivalent (Sensory Evaluations, Example 8) ([1]; 0.025% concentration): 5.2; Sweetness ratio (Compound:Sucrose) [1, 6]: 220; Sucrose Equivalent [1, 6]: 11% |
| COC(=O)[C@H](COC1CC2CCC1(C)C2(C)C)NC(=O)[C@@H](N)CC(=O)O (stereo partly drawn) [Example 11, α-L-Aspartyl-O-1-bornyl-L-serine methyl ester] | 200 | 1 | 250 | 2.5 | 180 | 4.5 |  |
| COC(=O)[C@H](COCCC12C=CC(CC1)C2)NC(=O)[C@@H](N)CC(=O)O (stereo partly drawn) [2-(4-norbornenyl)ethyl, α-L-Aspartyl-O-[2-(4-norbornenyl)ethyl]-L-serine methyl ester] |  |  |  |  |  |  | Sweetness ratio (Compound:Sucrose) [1, 6]: 117; Sucrose Equivalent [1, 6]: 5.8% |
| COC(=O)[C@H](COC1CCCC1(C)C)NC(=O)[C@@H](N)CC(=O)O (stereo partly drawn) [2,2-dimethylcyclopentyl, α-L-aspartyl-O-(2,2-dimethylcyclopentyl)-L-serine methyl ester] | 600 | 3 | 530 | 5.3 | 360 | 9 |  |
| COC(=O)[C@H](COC1CCCCC1)NC(=O)[C@@H](N)CC(=O)O [cyclohexyl, α-L-aspartyl-O-(cyclohexyl)-L-serine methyl ester] |  |  | 120 | 1.2 | 127 | 3.2 |  |
| COC(=O)[C@H](COCCC1CC2CCC1C2)NC(=O)[C@@H](N)CC(=O)O (stereo partly drawn) [2-norbornylethyl, α-L-Aspartyl-O-2-norbornylethyl-L-serine methyl ester] |  |  |  |  |  |  | Sweetness ratio (Compound:Sucrose) [1, 7]: 105; Sucrose Equivalent [1, 7]: 4.2% |
| COC(=O)[C@H](COC1(C)CCCCC1)NC(=O)[C@@H](N)CC(=O)O [Example 2, L-aspartyl-O-(1-methylcyclohexyl)-L-serine methyl ester] | 400 | 2 | 450 | 4.5 | 340 | 8.5 |  |
| COC(=O)[C@H](COC1CCCC1C)NC(=O)[C@@H](N)CC(=O)O (stereo partly drawn) [trans-2-methylcyclopentyl, L-aspartyl-[O-(2-methylcyclopentyl)]-L-serine methyl ester] |  |  | 300 | 3 | 212 | 5.3 |  |
| COC(=O)[C@H](COC(C)(C)C1CC=C(C)CC1)NC(=O)[C@@H](N)CC(=O)O (stereo partly drawn) [Example 8C, α-L-aspartyl-O-[1,1-dimethyl-1-(4-methylcyclohex-3-enyl)methyl]-L-serine methyl ester] |  |  | 220 | 2.2 | 208 | 5.2 |  |
| COC(=O)[C@H](COC(C)(C)C)NC(=O)[C@@H](N)CC(=O)O [t-butyl, L-aspartyl-O-t-butyl-L-serine methyl ester, reference compound] (H-Asp-Ser(tBu)-OMe) |  |  |  |  |  |  | Sweetness ratio (Compound:Sucrose) [1, 6]: 120; Sucrose Equivalent [1, 6]: 6%; Sucrose Equivalent (Table 2, sweetness values of alkyl ethers) [2]: 140 |
| CCC1(OC[C@H](NC(=O)[C@@H](N)CC(=O)O)C(=O)OC)CCCC1 [Example 5, L-aspartyl-O-(1-ethylcyclopentyl)-L-serine methyl ester] | 400 | 2 | 400 | 4 |  |  | Sweetness ratio (Compound:Sucrose) [1, 8]: 300; Sucrose Equivalent [1, 8]: 6% |
| COC(=O)[C@H](CO[C@]1(C)CCCC[C@H]1C)NC(=O)[C@@H](N)CC(=O)O (single isomer, unassigned) [Example 4 TRANS ISOMER, L-aspartyl-O-(trans-1,2-dimethylcyclohexyl)-L-serine methyl ester] | 300 | 1.5 | 300 | 3.0 |  |  | Sucrose Equivalent ([1]; 0.01% concentration of compound, listed as trans-1,2-dimethylcyclohexyl): 3%; Sweetness ratio (Compound:Sucrose) [1, 8]: 250; Sucrose Equivalent [1, 8]: 5.0%; Sucrose Equivalent ([1]; 0.02% concentration of compound, listed as trans-1,2-dimethylcyclohexyl): 5% |
| COC(=O)[C@H](COC1(C)CCCCCC1)NC(=O)[C@@H](N)CC(=O)O [Example 12, α-L-aspartyl-O-(1-methyl-cycloheptyl)-L-serine methyl ester] |  |  | 200 | 2 |  |  | Sweetness ratio (Compound:Sucrose) [1, 6]: 120; Sucrose Equivalent [1, 6]: 6% |
| COC(=O)[C@H](CO[C@@]1(C)CCCC[C@H]1C)NC(=O)[C@@H](N)CC(=O)O (single isomer, unassigned) [Example 4 CIS ISOMER, L-aspartyl-O-(cis-1,2-dimethylcyclohexyl)-L-serine methyl ester] | 400 | 2.0 | 400 | 4.0 |  |  | Sucrose Equivalent ([1]; 0.005% concentration of compound, listed as Cis-1,2-dimethylcyclohexyl): 2%; Sucrose Equivalent ([1]; 0.01% concentration of compound, listed as Cis-1,2-dimethylcyclohexyl): 4%; Sweetness ratio (Compound:Sucrose) [1, 8]: 350; Sucrose Equivalent [1, 8]: 7.0%; Sucrose Equivalent ([1]; 0.02% concentration of compound, listed as Cis-1,2-dimethylcyclohexyl): 7% |
| COC(=O)[C@H](COC1CCCC1)NC(=O)[C@@H](N)CC(=O)O [cyclopentyl, α-L-aspartyl-O-(cyclopentyl)-L-serine methyl ester] | 300 | 1.5 | 230 | 2.3 | 180 | 4.5 |  |
| COC(=O)[C@H](COC1C(C)(C)CCC1(C)C)NC(=O)[C@@H](N)CC(=O)O [Example 10, α-L-Aspartyl-O-2,2,5,5-tetramethylcyclopentyl-L-serine methyl ester] | 1000 | 5 | 800 | 8 |  |  | Sweetness ratio (Compound:Sucrose) [1, 9]: 1200; Sucrose Equivalent [1, 9]: 3% |
| COC(=O)[C@H](COC1(C)CCCC1)NC(=O)[C@@H](N)CC(=O)O [I, L-aspartyl-O-(1-methylcyclopentyl)-L-serine methyl ester] | 500 | 2.5 | 500 | 5 | 400 | 10 | Sucrose Equivalent [1, 6]: 12%; temporal and sensory qualities ([1]; determined by the panel of experts): excellent temporal and sensory qualities |
| CCC(C)(C)OC[C@H](NC(=O)[C@@H](N)CC(=O)O)C(=O)OC [tert. C5 H11, L-aspartyl-O-t-amyl-L-serine methyl ester] |  |  |  |  |  |  | Sucrose Equivalent (Table 2, sweetness values of alkyl ethers) [2]: 230 |
